1 molecule from patent publication US8153821B2, “Compounds” (priority 2008, dated 2012) can be followed below.

By EC50 is commonly meant the concentration at which the effect is half-maximal. As a reminder, the Emax is the maximal effect, on the per cent scale that the assay sets. The term IC50 denotes the midpoint of a concentration-inhibition curve. Lower therefore signals higher potency.

Structures are written as SMILES.

Series [1] concerns the target T1, human native ganglion receptors (Homo sapiens, UniProt P30926+P32297).
T1 construct: human native ganglion-type nicotinic receptors (likely α3β4); endogenous in cells; host or cells: SH-SY5Y
The experiment in a line: Ca flux assay, SH-SY5Y cells. The class given is cell-based. How it is done:
The cell line SH-SY5Y is a continuous line derived by sequential subcloning of the parental cell line, SK-N-SH, which was originally obtained from a human peripheral neuroblastoma. SH-SY5Y cells express a ganglion-like nAChR (Lukas et al., Mol. Cell. Neurosci. 4: 1 (1993)).
(R)-3-((E)-2-(Pyrrolidin-3-yl)vinyl)-5-(tetrahydropyran-4-yloxy)pyridine or a salt thereof was tested in ganglion and muscle-type nicotinic receptor ion flux assays to examine functional selectivity.

Series [2] deals with α4β2 (Homo sapiens, UniProt P17787+P43681). The experiment in a line: In vitro assay at α4β2, response compared to acetylcholine.
The test system of series [3] is CYP1A2, CYP2C9, CYP2C19, CYP2D6, CYP3A4 (5 major CYPs). The experiment in a line: in vitro. The class given is in vitro ADME. Particulars: human. How it is done:
Inhibition of CYP1A2, CYP2C9, CYP2C19, CYP2D6 and CYP3A4 catalytic activity by (R)-3-((E)-2-(pyrrolidin-3-yl)vinyl)-5-(tetrahydropyran-4-yloxy)pyridine or a slat thereof was assessed using a fluorogenic CYP assay. Probe substrates which fluoresce upon CYP catalyzed oxidation were used to evaluate the degree of inhibition of the test substrate. A single concentration of each probe substrate (at approximately the apparent Km value) and two different concentrations of (R)-3-((E)-2-(pyrrolidin-3-yl)vinyl)-5-(tetrahydropyran-4-yloxy)pyridine hemigalactarate (2 and 20 μM) were tested in duplicate. Fluorescence intensity at selected wavelengths was used as a measure of enzyme activity. Decreased fluorescence in the presence of (R)-3-((E)-2-(pyrrolidin-3-yl)vinyl)-5-(tetrahydropyran-4-yloxy)pyridine or a sat thereof was an indication of inhibition. […] Duplicate samples were run alongside the positive and negative controls. Incubation of test samples was performed at 37° C. Experimental parameters are outlined in Table 2.

T1 sequence (P32297 32-505): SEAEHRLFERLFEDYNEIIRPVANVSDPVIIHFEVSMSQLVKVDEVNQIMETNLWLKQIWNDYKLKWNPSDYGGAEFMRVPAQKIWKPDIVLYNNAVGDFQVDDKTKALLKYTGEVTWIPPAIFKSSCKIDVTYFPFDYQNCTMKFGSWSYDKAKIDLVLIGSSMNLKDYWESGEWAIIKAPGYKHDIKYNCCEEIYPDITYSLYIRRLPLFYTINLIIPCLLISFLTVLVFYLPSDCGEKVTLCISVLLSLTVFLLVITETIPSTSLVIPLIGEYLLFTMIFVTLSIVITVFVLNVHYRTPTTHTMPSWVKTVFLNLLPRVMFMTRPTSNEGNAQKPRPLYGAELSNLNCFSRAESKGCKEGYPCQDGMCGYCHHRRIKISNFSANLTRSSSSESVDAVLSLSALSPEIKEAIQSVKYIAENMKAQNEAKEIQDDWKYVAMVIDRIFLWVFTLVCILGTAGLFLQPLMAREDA
T1 sequence (P30926 22-498): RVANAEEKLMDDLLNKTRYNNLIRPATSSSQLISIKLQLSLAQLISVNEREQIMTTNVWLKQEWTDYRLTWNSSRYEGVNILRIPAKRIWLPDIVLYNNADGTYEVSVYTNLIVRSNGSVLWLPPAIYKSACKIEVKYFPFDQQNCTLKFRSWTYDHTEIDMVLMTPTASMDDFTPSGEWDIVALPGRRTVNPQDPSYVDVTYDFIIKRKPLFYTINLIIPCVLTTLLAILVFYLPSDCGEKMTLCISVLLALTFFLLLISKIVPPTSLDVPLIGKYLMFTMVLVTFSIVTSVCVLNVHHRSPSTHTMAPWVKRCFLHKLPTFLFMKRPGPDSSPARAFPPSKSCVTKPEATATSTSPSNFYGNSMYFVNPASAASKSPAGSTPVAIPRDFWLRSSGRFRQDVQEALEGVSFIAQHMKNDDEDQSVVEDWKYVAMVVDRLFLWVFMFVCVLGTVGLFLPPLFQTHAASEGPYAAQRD
α4β2, sequence (P43681 29-627 limits assumed): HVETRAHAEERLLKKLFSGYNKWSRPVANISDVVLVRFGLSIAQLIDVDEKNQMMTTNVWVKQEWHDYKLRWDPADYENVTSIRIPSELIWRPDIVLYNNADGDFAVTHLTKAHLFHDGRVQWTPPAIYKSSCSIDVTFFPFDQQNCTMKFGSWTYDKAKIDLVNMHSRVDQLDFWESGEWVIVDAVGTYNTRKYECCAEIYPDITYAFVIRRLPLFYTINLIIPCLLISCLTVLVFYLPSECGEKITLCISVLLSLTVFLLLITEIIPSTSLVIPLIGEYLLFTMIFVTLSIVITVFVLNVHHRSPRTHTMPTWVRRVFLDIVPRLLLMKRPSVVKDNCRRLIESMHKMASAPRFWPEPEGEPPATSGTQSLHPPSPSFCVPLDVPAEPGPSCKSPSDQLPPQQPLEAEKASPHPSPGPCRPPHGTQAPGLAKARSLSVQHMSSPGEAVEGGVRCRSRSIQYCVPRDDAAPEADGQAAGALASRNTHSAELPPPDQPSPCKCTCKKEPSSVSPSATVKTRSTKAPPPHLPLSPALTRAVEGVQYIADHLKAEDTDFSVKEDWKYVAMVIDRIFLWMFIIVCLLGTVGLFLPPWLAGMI
α4β2, sequence (P17787 26-502): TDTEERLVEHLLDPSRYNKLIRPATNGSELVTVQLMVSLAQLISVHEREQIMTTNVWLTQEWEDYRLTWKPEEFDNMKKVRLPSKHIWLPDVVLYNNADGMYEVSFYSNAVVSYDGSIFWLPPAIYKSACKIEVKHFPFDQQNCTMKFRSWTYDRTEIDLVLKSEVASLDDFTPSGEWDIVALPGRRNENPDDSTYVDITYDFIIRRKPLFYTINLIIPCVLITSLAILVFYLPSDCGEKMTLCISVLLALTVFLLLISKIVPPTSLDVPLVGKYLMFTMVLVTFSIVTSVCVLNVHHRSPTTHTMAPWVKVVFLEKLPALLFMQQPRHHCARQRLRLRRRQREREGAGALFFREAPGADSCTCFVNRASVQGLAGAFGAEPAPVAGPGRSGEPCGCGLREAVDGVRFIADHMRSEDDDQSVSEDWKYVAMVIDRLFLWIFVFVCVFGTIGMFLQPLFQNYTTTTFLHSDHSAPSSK

`C(=C\[C@H]1CCNC1)/c1cncc(OC2CCOCC2)c1` [Compound A, (R)-3-((E)-2-(pyrrolidin-3-yl)vinyl)-5-(tetrahydropyran-4-yloxy)pyridine] gave an EC50 in series [1] of 11 µM. The “Human ganglionic (SH-SY5Y) Emax (Ca flux)” value in series [1] (SH-SY5Y cells) is on record as “μM, 13%”. The maximum response (Emax) in series [1] (SH-SY5Y cells, read-out: Human ganglionic (SH-SY5Y) Emax (Ca flux)) turned out to be 13%. Moreover, the “response compared to acetylcholine” value in series [2] is “twice as great”. The IC50 in series [3] is above 20 µM.
